This passage reports IC50 results from patent US20090124631A1, “Combination Therapy” (priority 2007, published 2009).

Where only a bound is given, the exact number is not on record here.

What all share (assay type): biochemical
One assay has as its target T1, HDAC5 (Homo sapiens, UniProt Q9UQL6).
T1 construct: cDNAs encoding truncated versions of HDAC4, 5 and 7 encompassing their deacetylase domains; hexahistidine (N); made in house; host or cells: Sf-9 insect cells (baculovirus)
The assay can be described thus: Fluorescence-based HDAC enzyme assay, recombinant HDAC5. The settings on record: recombinant human HDAC enzyme in vitro; read-out: IC50 (μM) HD5. The text has this: (§1) cDNAs of human HDAC1-8 and 11 were generated by RT-PCR reactions using primers complementary to the 5′ and 3′ coding sequence of human HDAC gene sequences in GenBank. cDNAs corresponding to the full length human HDAC1, 2, 3 and 11 were cloned into pBlueBac4.5 vector (Invitrogen). The constructs were used to generate recombinant baculoviruses using the Bac-N-Blue™ DNA according to the manufacturer's instructions (Invitrogen). The recombinant HDAC1, 2, 3, 11 proteins produced harbor a FLAG tag at their C-termini. cDNAs encoding truncated versions of HDAC4, 5 and 7 encompassing their deacetylase domains were cloned into pDEST10 as an N-terminal hexahistidine fusion protein and recombinant baculoviruses were generated using the Bac-to-Bac™ Baculovirus expression system (Invitrogen). HDAC6 and 8 were cloned as full length N-terminally His-tagged protein. All HDAC proteins were expressed in insect Sf-9 cells (Spodoptera frugiperdai) upon infection with recombinant baculovirus. HDAC1 enzyme was purified from the Q-sepharose FF column (Amersham Pharmacia Biotech, Baie d'Urfe QC, Canada) followed by an anti-FLAG immunoaffinity column (Sigma). HDAC2, 3 and 11 were purified using Flag-antibody immunoaffinity purification. HDAC4, 5, 6, 7 and 8 were purified using either Ni-NTA resin (QIAGEN Mississauga ON, Canada) or His-Select resin (Sigma) with step washes and elution with different concentrations of imidazole in Buffer containing 25 mM Tris (or NaPO4) pH 8.0, 10% glycerol and 150 mM or 500 mM NaCl.
(§2) Recombinant HDAC enzymes were incubated with diluted compounds in assay buffer (25 mM Hepes, pH 8.0, 137 mM NaCl, 1 mM MgCl2 and 2.7 mM KCl) for 10 minutes at ambient temperatures in black 96-well plate. Boc-Lys(Ac)-AMC (for HDAC1, 2, 3, 6, and 8 enzymes), which was purchased from Bachem Biosciences Inc., (King of Prussia, Philadelphia) were added into enzyme-compound mixture and incubated at 37° C. For HDAC4, 5, 7 assays, Boc-Lys(TFA)-AMC, which was synthesized in house, was used as substrate and 0.1% BSA was added to the buffer. […] Reaction time was predetermined to ensure that reaction was linear for the incubation time. Reaction was stopped by adding a freshly prepared trypsin (1 mg/ml final concentration) with 1 μM TSA (Biomol) in assay buffer. After 30 minutes, fluorescence was measured using a fluorometer (SPECTRAMAX GeminiXS, Molecular Devices, Sunnylvale, Calif.). The 50% inhibitory concentrations (IC50) for inhibitors were determined by analyzing dose-response inhibition curves.

Another assay has as its target T2, HDAC7 (Homo sapiens, UniProt Q8WUI4).
T2 construct: cDNAs encoding truncated versions of HDAC4, 5 and 7 encompassing their deacetylase domains; hexahistidine (N); made in house; host or cells: Sf-9 insect cells (baculovirus)
T2 sequence (Q8WUI4 512-865 limits assumed): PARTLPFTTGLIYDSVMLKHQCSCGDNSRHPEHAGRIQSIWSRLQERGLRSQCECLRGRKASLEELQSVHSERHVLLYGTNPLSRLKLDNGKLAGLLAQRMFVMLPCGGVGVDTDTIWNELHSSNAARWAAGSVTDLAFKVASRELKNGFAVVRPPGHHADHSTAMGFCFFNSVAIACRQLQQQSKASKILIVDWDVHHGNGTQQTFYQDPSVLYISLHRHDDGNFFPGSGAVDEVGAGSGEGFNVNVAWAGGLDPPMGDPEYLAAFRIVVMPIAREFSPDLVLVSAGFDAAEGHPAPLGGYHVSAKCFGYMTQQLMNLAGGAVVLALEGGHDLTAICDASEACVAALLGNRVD
Nature of the assay: Fluorescence-based HDAC enzyme assay, recombinant HDAC7. To be noted: recombinant human HDAC enzyme in vitro; read-out: IC50 (μM) HD7.
Excerpt: as §1, §2

The next assay concerns the target T3, HDAC2 (Homo sapiens, UniProt Q92769).
T3 construct: cDNAs corresponding to the full length human HDAC1, 2, 3 and 11 were cloned into pBlueBac4.5 vector; FLAG (C); made in house; host or cells: Sf-9 insect cells (baculovirus)
The assay can be described thus: Fluorescence-based HDAC enzyme assay, recombinant HDAC2. To be noted: recombinant human HDAC enzyme in vitro; read-out: IC50 (μM) HD2.
Excerpt: as §1, with “HDAC2, 3 and 11 were purified using Flag-antibody immunoaffinity purification.” left out
as §2, with “Boc-Lys(Ac)-AMC” for “Recombinant HDAC enzymes were incubated with diluted compounds in assay buffer (25 mM Hepes, pH 8.0, 137 mM NaCl, 1 mM MgCl2 and 2.7 mM KCl) for 10 minutes at ambient temperatures in black 96-well plate. Boc-Lys(Ac)-AMC”, “Calif.).” for “Calif.). The 50% inhibitory concentrations (IC50) for inhibitors were determined by analyzing dose-response inhibition curves.”

The next assay concerns the target T4, HDAC4 (Homo sapiens, UniProt P56524).
T4 construct: cDNAs encoding truncated versions of HDAC4, 5 and 7 encompassing their deacetylase domains; hexahistidine (N); made in house; host or cells: Sf-9 insect cells (baculovirus)
The assay can be described thus: Fluorescence-based HDAC enzyme assay, recombinant HDAC4. The settings on record: recombinant human HDAC enzyme in vitro; read-out: IC50 (μM) HD4.
Excerpt: as §1, §2

T1 sequence (Q9UQL6 684-1028 limits assumed): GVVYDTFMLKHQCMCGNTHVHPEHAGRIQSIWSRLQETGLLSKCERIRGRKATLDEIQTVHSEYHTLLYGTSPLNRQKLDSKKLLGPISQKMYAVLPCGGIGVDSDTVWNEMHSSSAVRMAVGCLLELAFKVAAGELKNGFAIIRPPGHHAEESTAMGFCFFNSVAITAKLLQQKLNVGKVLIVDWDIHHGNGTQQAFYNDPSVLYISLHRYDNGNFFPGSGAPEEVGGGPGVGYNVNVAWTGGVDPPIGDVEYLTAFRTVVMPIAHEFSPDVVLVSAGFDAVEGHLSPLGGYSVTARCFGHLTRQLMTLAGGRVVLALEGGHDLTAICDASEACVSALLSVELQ
T4 sequence (P56524 655-1084 limits assumed): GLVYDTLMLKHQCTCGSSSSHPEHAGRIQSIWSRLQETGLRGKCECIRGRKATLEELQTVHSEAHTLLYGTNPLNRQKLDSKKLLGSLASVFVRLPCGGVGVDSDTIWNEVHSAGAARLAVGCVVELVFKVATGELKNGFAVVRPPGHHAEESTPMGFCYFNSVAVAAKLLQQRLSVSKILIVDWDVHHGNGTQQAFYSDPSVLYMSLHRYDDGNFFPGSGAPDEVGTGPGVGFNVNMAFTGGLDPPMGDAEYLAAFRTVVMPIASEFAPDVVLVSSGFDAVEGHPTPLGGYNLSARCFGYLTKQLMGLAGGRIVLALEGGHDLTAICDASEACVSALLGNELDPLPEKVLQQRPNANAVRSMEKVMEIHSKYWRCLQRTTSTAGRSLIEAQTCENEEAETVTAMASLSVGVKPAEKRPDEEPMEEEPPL
T3 sequence (Q92769 whole entry): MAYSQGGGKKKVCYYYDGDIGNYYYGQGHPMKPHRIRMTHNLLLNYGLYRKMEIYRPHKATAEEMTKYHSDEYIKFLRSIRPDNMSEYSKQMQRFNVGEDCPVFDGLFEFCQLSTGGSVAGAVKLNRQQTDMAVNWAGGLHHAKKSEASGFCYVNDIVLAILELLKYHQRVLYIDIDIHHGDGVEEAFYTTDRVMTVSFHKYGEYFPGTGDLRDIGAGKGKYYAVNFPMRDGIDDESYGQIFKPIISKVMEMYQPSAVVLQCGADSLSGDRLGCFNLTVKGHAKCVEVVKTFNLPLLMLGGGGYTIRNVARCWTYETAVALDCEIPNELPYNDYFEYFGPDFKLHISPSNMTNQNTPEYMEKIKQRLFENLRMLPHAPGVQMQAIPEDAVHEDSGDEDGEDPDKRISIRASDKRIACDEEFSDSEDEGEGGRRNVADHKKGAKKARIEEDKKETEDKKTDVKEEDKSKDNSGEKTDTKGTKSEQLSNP

As a reminder, the IC50 is the concentration that inhibits the measured activity by half. Take `Nc1ccccc1NC(=O)c1ccc(CNc2nccc(-c3cccnc3)n2)cc1` [Compound A]: the concentration for half-maximal inhibition (IC50) on HDAC5 and at HDAC7 was above 10 µM in each case.
For `Nc1ccccc1NC(=O)c1ccc(N2CC[C@H](Nc3cccnc3)C2)cc1` [Compound B], the half-inhibitory concentration (IC50) at HDAC5 was above 10 µM; on HDAC7 it was above 10 µM; on HDAC2, 0.5 µM; on HDAC4 it was above 10 µM.
For `Nc1ccc(-c2ccccc2)cc1NC(=O)c1ccc(N2CC[C@H](N)C2)cc1` [Compound D], the IC50 at HDAC5 was above 10 µM; at HDAC7 it was above 10 µM; at HDAC2 it was 0.09 µM; on HDAC4, above 10 µM.
As to `Nc1ccc(-c2ccccc2)cc1NC(=O)c1ccc(N2CCC(N)CC2)cc1` [Compound E], the IC50 at HDAC5 is above 10 µM; at HDAC7 it was above 10 µM; at HDAC2, 0.08 µM; on HDAC4 it was above 10 µM.
`CN1CCN(c2ccc(C(=O)Nc3cc(-c4ccccn4)ccc3N)cc2)CC1` [Compound F]: the IC50 is above 10 µM at HDAC5, above 10 µM at HDAC7, 0.1 µM on HDAC2 and above 10 µM at HDAC4.
Take `CN1CCN(c2ccc(C(=O)Nc3cc(-c4ccncc4)ccc3N)cc2)CC1` [Compound G]: the IC50 at HDAC5 is above 10 µM; at HDAC7 it was above 10 µM; at HDAC2, 0.1 µM; on HDAC4, above 10 µM.
In the case of `CC(C)N1CCN(c2ccc(C(=O)Nc3cc(-c4ccncc4)ccc3N)cc2)CC1` [Compound H], the IC50 at HDAC5 was above 10 µM; at HDAC7, above 10 µM; on HDAC2, 0.09 µM; on HDAC4, above 10 µM.
